Source: PMC10300102, “In vivo inhibition of nuclear ACE2 translocation protects against SARS-CoV-2 replication and lung damage through epigenetic imprinting” (Nature Communications, 2023)
Where a SMILES comes first, the peptide text is derived from it. The star is where a group is joined. Myristoyl = CCCCCCCCCCCCCC(=O)*

System: SARS-CoV-2 ORF1ab and host gene expression
Conditions: hamster, in vivo

In the case of `CCCCCCCCCCCCCC(=O)N[C@H](C(=O)NCC(=O)N[C@H](C(=O)N[C@@H](CCCNC(=N)N)C(=O)N[C@@H](CC(=O)O)C(=O)N[C@@H](CCCNC(=N)N)C(=O)N[C@@H](CCCCN)C(=O)N[C@@H](CCCCN)C(=O)N[C@@H](CCCCN)C(=O)N[C@@H](CC(N)=O)C(=O)N[C@@H](CCCCN)C(=O)N[C@@H](C)C(=O)N[C@@H](CCCNC(=N)N)C(=O)N[C@@H](CO)C(=O)O)[C@@H](C)CC)[C@@H](C)O` [NACE2i] (Myristoyl-TGIRDRKKKNKARS-OH), the “FC gene Cyp4v3” value is reported as 0.2095, the “FC gene ORF1ab” value is reported as -2.2037 and the “FC gene S” value is reported as -2.258. For the same compound, the “FC, gene 2410004B18Rik” value was 0.5678, the “FC, gene 4932438A13Rik” value was 0.5459 and the “FC, gene Acat3” value was -0.674. The “FC, gene Acly” value was -0.5062, the “FC, gene Adnp2” value was 0.5468 and the “FC, gene Aen” value was 0.6316. For the same compound, the “FC, gene Aff4” value was 0.6064, the “FC, gene Ahcy” value was -0.9648 and the “FC, gene Akap13” value was 0.5493. The “FC, gene Ankrd17” value was 0.6698, the “FC, gene Ap1s1” value was -0.5707 and the “FC, gene Ap3d1” value was 0.5083. For the same compound, the “FC, gene Aplnr” value was 0.5871, the “FC, gene Arhgap23” value was 0.8043 and the “FC, gene Asph” value was -0.5094. The “FC, gene Atf1” value was 0.5582, the “FC, gene Bbs4” value was 0.6922 and the “FC, gene Bnip1” value was 0.513. The “FC, gene Btn1a1” value was 0.5761, the “FC, gene C2” value was 2.567 and the “FC, gene Ccdc115” value was -0.5047. For the same compound, the “FC, gene Ccr7” value was 0.5204, the “FC, gene Cdk4” value was -0.5201 and the “FC, gene Chd8” value was 1.187. The “FC, gene Chpt1” value was -0.6745, the “FC, gene Ciao2a” value was -0.5045 and the “FC, gene Clcn7” value was 0.7305. For the same compound, the “FC, gene Cldn10” value was -0.6712, the “FC, gene Clec2j” value was -0.5841 and the “FC, gene Cuedc1” value was -0.5402. For the same compound, the “FC, gene Cyp4a32” value was 0.9236, the “FC, gene Cyth4” value was 0.5449 and the “FC, gene D8Ertd738e” value was -0.5566. For the same compound, the “FC, gene Dcps” value was 0.5089, the “FC, gene Ddx3x” value was 0.6643 and the “FC, gene Ddx17” value was -0.6263. The “FC, gene Ddx50” value was 0.5809, the “FC, gene Dnajb1” value was 1.307 and the “FC, gene Dnajb4” value was 0.8217. For the same compound, the “FC, gene Dusp6” value was 0.7087, the “FC, gene Dusp8” value was 0.9914 and the “FC, gene Edem2” value was -0.5407. The “FC, gene Efcab6” value was -0.6582, the “FC, gene Efhc2” value was 0.6406 and the “FC, gene Efl1” value was 0.5009. The “FC, gene Egr2” value was 1.468, the “FC, gene Epb41l2” value was 0.503 and the “FC, gene Epb41l4b” value was -0.6555. The “FC, gene Epc1” value was 0.5651, the “FC, gene Erfl” value was 0.7342 and the “FC, gene Fam210b” value was -0.5004. For the same compound, the “FC, gene Fbxo34” value was 0.5562, the “FC, gene Fer1l4” value was 0.5763 and the “FC, gene Fgfr2” value was -0.6329. The “FC, gene Fnip1” value was 1.067, the “FC, gene Foxa1” value was -0.5875 and the “FC, gene Foxo4” value was -0.5985. The “FC, gene Foxp1” value was 0.7638, the “FC, gene Frk” value was -0.5985 and the “FC, gene Fscn1” value was 0.6051. The “FC, gene Gadd45gip1” value was -0.6021, the “FC, gene Galnt16” value was 0.5879 and the “FC, gene Gcdh” value was -0.6082. For the same compound, the “FC, gene Get3” value was -0.5368, the “FC, gene Gm6760” value was -0.5229 and the “FC, gene Gm19935” value was 0.6161. The “FC, gene Gm36327” value was 0.5888, the “FC, gene Gpr108” value was -0.6108 and the “FC, gene Grcc10” value was -0.632. For the same compound, the “FC, gene Gstm5” value was -0.5595, the “FC, gene Hbs1l” value was 0.5826 and the “FC, gene Hcfc2” value was 0.539. The “FC, gene Hddc3” value was -0.6233, the “FC, gene Hes1” value was 0.7365 and the “FC, gene Hes7” value was 0.6772. The “FC, gene Hnrnph3” value was 0.5781, the “FC, gene Hspa1a” value was 3.192 and the “FC, gene Hspb8” value was 0.5876. For the same compound, the “FC, gene Ints1” value was -0.5112, the “FC, gene Ints6” value was 0.5796 and the “FC, gene Irgm2” value was 0.8053. For the same compound, the “FC, gene Itm2c” value was -0.5859, the “FC, gene Josd2” value was -0.5145 and the “FC, gene Kcnb2” value was 0.5599. The “FC, gene Kdm2b” value was 0.8792, the “FC, gene Klf2” value was 0.591 and the “FC, gene Klf6” value was 1.611. For the same compound, the “FC, gene Krcc1” value was -0.5435, the “FC, gene Ldhb” value was 0.9545 and the “FC, gene Lrch4” value was 0.6982. The “FC, gene Mat2b” value was -0.5576, the “FC, gene Mcl1” value was 0.7457 and the “FC, gene Mff” value was -0.5195. The “FC, gene Mpnd” value was -0.5935, the “FC, gene Mrgprb13” value was 0.5244 and the “FC, gene Mrpl18” value was -0.5015. For the same compound, the “FC, gene Msantd1” value was 0.7207, the “FC, gene Myo6” value was -0.795 and the “FC, gene Myoz2” value was -0.6449. For the same compound, the “FC, gene Ndufc2” value was -0.5355, the “FC, gene Nfat5” value was 0.6106 and the “FC, gene Nfyc” value was 0.5405. For the same compound, the “FC, gene Nlrp9c” value was 0.6509, the “FC, gene Nr1d1” value was 0.7307 and the “FC, gene Nr6a1” value was 0.5193. For the same compound, the “FC, gene Nrg1” value was 1.2298, the “FC, gene ORF1ab_REV” value was 1.502 and the “FC, gene Olfr229” value was 0.6277. The “FC, gene Olfr648” value was 0.5798, the “FC, gene Olfr992” value was 0.5742 and the “FC, gene Olfr1246” value was 0.5289. The “FC, gene Oser1” value was 0.5067, the “FC, gene Papss2” value was 0.7496 and the “FC, gene Parp4” value was 0.5117. The “FC, gene Paxx” value was 0.5674, the “FC, gene Pcdh10” value was 0.5344 and the “FC, gene Pcf11” value was 0.7986. For the same compound, the “FC, gene Pga5” value was 0.5011, the “FC, gene Pias3” value was -0.5192 and the “FC, gene Pigb” value was 0.6695. The “FC, gene Pllp” value was -0.5323, the “FC, gene Ppargc1a” value was 2.4524 and the “FC, gene Ppil3” value was 0.791. The “FC, gene Ppp1r10” value was 1.995, the “FC, gene Ppp2r1a” value was -0.5051 and the “FC, gene Prpsap1” value was -0.5066. For the same compound, the “FC, gene Ptprf” value was -0.5908, the “FC, gene Pum1” value was 0.5225 and the “FC, gene Rac3” value was -0.6773. For the same compound, the “FC, gene Ranbp3” value was 0.6534, the “FC, gene Rapgef6” value was 0.5765 and the “FC, gene Rasgrp2” value was 0.6502. For the same compound, the “FC, gene Rbm39” value was 0.6181, the “FC, gene Rel” value was 0.5472 and the “FC, gene Rnd1” value was 2.009. The “FC, gene Rora” value was 0.5709, the “FC, gene Rps6ka4” value was -0.6146 and the “FC, gene Rsad1” value was 0.5304. For the same compound, the “FC, gene Rtf2” value was 0.5373, the “FC, gene Rusf1” value was -0.6909 and the “FC, gene S” value was 7.077. The “FC, gene Samd11” value was 0.6285, the “FC, gene Sdf4” value was 0.5035 and the “FC, gene Sema4f” value was 1.3449. For the same compound, the “FC, gene Serhl” value was 1.282, the “FC, gene Serpinb9f” value was 0.5421 and the “FC, gene Serpinf1” value was 0.5919. For the same compound, the “FC, gene Sfpq” value was 0.8832, the “FC, gene Sftpd” value was -0.8403 and the “FC, gene Skil” value was 0.9649. The “FC, gene Slc8a2” value was 0.6877, the “FC, gene Slc25a1” value was -0.8686 and the “FC, gene Slc25a45” value was 1.7301. For the same compound, the “FC, gene Snrnp70” value was -0.5232, the “FC, gene Socs2” value was 1.6268 and the “FC, gene Sqle” value was -0.5283. The “FC, gene St7” value was 0.6724, the “FC, gene Stc1” value was -0.7739 and the “FC, gene Sult1a1” value was -0.5479. The “FC, gene Tcp11l2” value was -0.5998, the “FC, gene Tecr” value was -0.5713 and the “FC, gene Tmbim6” value was -0.5766. For the same compound, the “FC, gene Tmem35b” value was 1.27, the “FC, gene Tnfrsf12a” value was 0.714 and the “FC, gene Tpgs1” value was -0.5572. The “FC, gene Tra2b” value was 1.01, the “FC, gene Tspan12” value was -0.8782 and the “FC, gene Ttll8” value was -0.5897. For the same compound, the “FC, gene Twist1” value was 0.5929, the “FC, gene Urah” value was -0.7905 and the “FC, gene Vpreb1” value was 0.5028. The “FC, gene Vtcn1” value was -0.6235, the “FC, gene Xpo4” value was 0.7242 and the “FC, gene Ybey” value was 0.5779. For the same compound, the “FC, gene Ypel3” value was -0.854, the “FC, gene Zbtb10” value was 0.9542 and the “FC, gene Zdhhc18” value was 0.5354. For the same compound, the “FC, gene Zfp68” value was 0.8041, the “NEC, Autophagy” value was -1.884 and the “NEC, Biological oxidations” value was -2.307. The “NEC, COPI-mediated anterograde transport” value was -2.085, the “NEC, Cilium Assembly” value was -1.905 and the “NEC, ER to Golgi Anterograde Transport” value was -1.892. The “NEC, Macroautophagy” value was -1.884, the “NEC, Organelle biogenesis and maintenance” value was -2.083 and the “NEC, The citric acid (TCA) cycle and respiratory electron transport” value was -2.083. For the same compound, the “expression of SARS-CoV-2 ORF1ab” value was “significantly reduced”, the “top 20 genes in the TLR4 pathway” value was “downregulated” and the “viral ORF1ab and S genes in alveoli” value was “significantly downregulated”.
